Entries after “also recorded” stand apart in the source; their conditions may differ. Like-named read-outs stand apart in the source and are kept apart here.
Assays:
aromatase [1] = biological target: T1, aromatase (Homo sapiens, UniProt P11511); assay: Irreversibility Experiments (diffusion dialysis), tritium release assay; assay type: biochemical; settings: 250 nM inhibitor, preincubation 5 minutes at 30° C.
T1 construct: Placental microsomes were prepared as previously described; from tissue; host or cells: human placenta, microsomes
T1 sequence (P11511 1-503): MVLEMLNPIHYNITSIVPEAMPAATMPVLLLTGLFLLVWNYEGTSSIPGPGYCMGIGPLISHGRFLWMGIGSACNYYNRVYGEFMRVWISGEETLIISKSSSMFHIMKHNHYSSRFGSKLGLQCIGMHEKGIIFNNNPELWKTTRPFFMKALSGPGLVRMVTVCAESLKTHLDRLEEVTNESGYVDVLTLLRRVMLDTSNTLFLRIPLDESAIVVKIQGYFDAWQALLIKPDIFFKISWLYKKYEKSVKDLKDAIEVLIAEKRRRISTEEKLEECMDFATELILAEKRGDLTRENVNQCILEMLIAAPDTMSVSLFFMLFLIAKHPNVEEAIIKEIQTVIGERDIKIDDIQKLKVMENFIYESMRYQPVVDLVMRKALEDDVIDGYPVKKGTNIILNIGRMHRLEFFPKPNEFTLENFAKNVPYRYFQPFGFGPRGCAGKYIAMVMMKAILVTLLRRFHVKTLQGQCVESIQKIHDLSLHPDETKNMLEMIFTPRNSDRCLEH
Protocol: (§1) The activity of 17β-hydroxy-10β-mercaptoestr-4-en-3-one and 19-mercaptoandrost-4-en-3,17-dione were tested as suicide inhibitors of aromatase according to the method of Coury et al. (J. Biol. Chem., 256, 1076 (1981)) in human placental microsomes. The activity was measured by the well-established tritium release assay according to Thompson et al. (J. Biol. Chem., 249, 5364 (1974)) using 1β,2β-[^3 H]androstenedione (40-60 Ci/mole) obtained from New England Nuclear in Boston, MA.
(§2) Human placenta were obtained from the University Hospital, University of Washington, Seattle, WA, and were used within a few hours of delivery. Placental microsomes were prepared as previously described. (Coury et al). Protein concentration was determined by the method of Lowry (J. Biol. Chem., 193, 265 (1951)).
Incubations containing 1.8 mg/ml microsomal protein, 32 mg/ml propylene glycol, 0.7 mM NADPH, and 250 nM of inhibitor were kept at 4° C. For zero time points, 400 μl aliquots, in triplicate, were removed and added to tritium release assays. Remaining microsomes were incubated at 30° C. for 5 minutes, cooled in ice to 4° C.; and 400 μl aliquots, in triplicate, were added to tritium release assays to determine remaining activity. Remaining microsomes were added to dialysis tubing (Spectrapore® membrane tubing, 3500 dalton cut off) and dialyzed against a 10 mM phosphate buffer, pH 7.5, 100 mM KCl, 1 mM EDTA, and 5% propylene glycol at 0° C. for 20 hours. To serve as controls, incubations containing the same concentrations of inhibitor, but no cofactors, were carried through the same procedures.
After dialysis, 400 μl aliquots, in duplicate, were added to 100 μl phosphate buffer containing 2.9 mM NADPH and 40 μM 1β,2β[^3 H]androstenedione (20 Ci/mol) and incubated at 37° C. for 10 minutes. The usual workup for the tritium release assay was followed. Protein content for all incubations fell approximately 25% after dialysis. Enzyme activity fell approximately 60% after dialysis.

aromatase [2] = biological target: T1, aromatase; assay: NADPH and Oxygen Dependency Experiments: aromatase inactivation in placental microsomes, tritium release assay; assay type: biochemical; settings: 500 nM inhibitor, preincubation 3 minutes at 30° C., not corrected for background loss (approximately 5%)
Protocol: as §1, §2
(§3) All incubations were carried out in 10 mM phosphate buffer, pH 7.5, 100 mM KCl, 1/mM EDTA. Incubations contained 1.0 mg/ml microsomal protein, 32 mg/ml propylene glycol, 0.36 mM NADPH, 11.5 mM glucose-6-phosphate dehydrogenase and 10 mM MgCl2 and were allowed to warm to 30° C. for 5 minutes. Inhibitors were added as 10 μl/ml from 10 μM stock solutions in ethanol to give final inhibitor concentrations of 100 nM. At various times, from 0 to 70 minutes, 400 μl aliquots in duplicate were removed and were added to […] of a 10 mM phosphate buffer, pH 7.5, 100 mM KCl, 1 mM EDTA containing 40 μM 1β,2β,[^3 H]androstenedione (20 Ci/mol). Tritium release incubations were conducted at 37° C. for 10 minutes and stopped by addition of 5 ml 20% acetone/chloroform. Following vortexing at high speeds for 30 seconds and centrifugation, 100 μl of the water layer was removed and mixed with 5 ml LSC cocktail and counted. Percent activity remaining is the number of DPMs after a time period divided by the number of DPMs at time zero multiplied by 100.
Incubations containing 1.0 mg/ml microsomal protein, 32 mg/ml propylene glycol, with or without 0.36 mM NADPH, were warmed to 30° C. for 5 minutes. Inhibitors were added in ethanol (10 μl/ml of incubate) to give inhibitor concentrations of 500 nM. Controls contained only ethanol and NADPH. After incubating 0 and 3 minutes at 30° C., 400 μl aliquots, in duplicate, from the NADPH containing incubations were added to the tritium release assay. For incubations lacking NADPH, 400 μl aliquots were removed and added to 100 μl phosphate buffer containing 1.4 mM NADPH and […] 1β,2β[^3 H]androstenedione (20 Ci/mol). Tritium release assays were conducted as described above.
Incubations containing 1.0 mg/ml microsomal protein, 32 mg/ml propylene glycol, and 500 nM inhibitor or ethanol (10 μl/ml) were prepared. Incubations run under anaerobic conditions were alternately evacuated and purged with deoxygenated nitrogen ten times at 0° C. Both anaerobic and aerobic incubations were allowed to warm to 30° C. for 5 minutes, and 10 μl/ml of a 1.4 mM NADPH solution was added via a syringe. After incubating 0 and 3 minutes at 30° C., triplicate aliquots of 400 μl were removed and added to tritium release assays.

aromatase [3] = biological target: T1, aromatase; assay: Androstenedione and Cysteine Protection Experiments (t1/2 of aromatase inactivation), tritium release assay; assay type: biochemical; settings: 1 at 500 nM, 2 at 167 nM, 30° C., NADPH, not corrected for background loss; for t1/2 (mean ± SD), time to bring about a 50% inhibition of aromatase: inhibitor alone; for t1/2 (mean ± SD), inhibitor and androstenedione: with androstenedione 5.0 μM; for t1/2 (mean ± SD), inhibitor and cysteine: with cysteine 1.0 mM
Protocol: as §1, §2, §3
Incubations containing 1.0 mg/ml microsomal protein, 32 mg/ml propylene glycol, and 0.36 mM NADPH were warmed to 30° C. for 5 minutes. Addition of ethanol solutions (10 μl/ml) of inhibitors with and without androstenedione gave final concentrations of 500 nM 17β-hydroxy-10β-mercaptoestr-4-en-3-one, 167 nM 19-mercaptoandrost-4-en-3,17-dione, with and without 5.0 μM androstenedione. After 0, 1, 2, and 3 minutes at 30° C., 400 μl aliquots, in duplicate, were removed and added to the tritium release assay.
Incubations containing 1.0 mg/ml microsomal protein, 32 mg/ml propylene glycol, and 0.36 mM NADPH, with or without 1.0 mM cysteine, were warmed to 30° C. for 5 minutes. Addition of inhibitor solution (10 μl/ml) gave final concentrations of 500 nM 17β-hydroxy-10β-mercapto-4-en-3-one and 167 nM 19-mercaptoandrost-4-en-3,17-dione. After incubating 0, 1, 2, and 3 minutes, 400 μl aliquots, in duplicate, were removed and added to tritium release assays.

[4] = in vivo; cited from earlier work
aromatase [5] = biological target: T1, aromatase; assay: Concentration-Dependent Inactivation (rate constant of inactivation); assay type: biochemical; settings: relative to 19-mercaptoandrost-4-en-3,17-dione
Protocol: as §1, §2
Incubations containing 1.0 mg/ml microsomal protein, 32 mg/ml propylene glycol, and 0.36 mM NADPH were warmed to 30° C. for 5 minutes. Various concentrations of inhibitor were added to the incubations in ethanol (10 μl/ml of incubate). Ethanol (10 μl/ml was) added as a control. After incubating 0, 1, 2, and 3 minutes at 30° C., 400 μl aliquots, in duplicate, were removed and were added to the tritium release assay described above.

[6] = after dialysis 20 hours at 0° C., read-out: Activity Remaining (mean ± SD), After Dialysis
[7] = 5 min, before dialysis, read-out: Activity Remaining (mean ± SD), Before Dialysis
[8] = N2 atmosphere (anaerobic), read-out: % Activity Remaining (mean ± SD), + N2 atmosphere
[9] = with NADPH, aerobic, read-out: % Activity Remaining (mean ± SD)
[10] = without NADPH, read-out: % Activity Remaining (mean ± SD), - NADPH

C[C@]12CC[C@H]3[C@@H](CCC4=CC(=O)CC[C@@]43CS)[C@@H]1CCC2=O [compound 2, 19-mercaptoandrost-4-en-3,17-dione]
remaining activity at 0.25 µM (aromatase [1]; [6]): 58 ± 2% | remaining activity at 0.25 µM (aromatase [1]; [7]): 50 ± 5% | remaining activity at 0.5 µM (aromatase [2]; [8]): 95 ± 5% | remaining activity at 0.5 µM (aromatase [2]; [9]): 77 ± 4% | remaining activity at 0.5 µM (aromatase [2]; [10]): 95 ± 5% | t1/2 (mean ± SD), time to bring about a 50% inhibition of aromatase (aromatase [3]): 7.7 ± 1.25 min | t1/2 (mean ± SD), inhibitor and androstenedione (aromatase [3]): 12.2 ± 0.35 min | t1/2 (mean ± SD), inhibitor and cysteine (aromatase [3]): 6.87 ± 0.333 min

CCC1(c2ccc(N)cc2)CCC(=O)NC1=O (stereo not drawn) [aminoglutethimide]
side effects [4]: lethargy or tumor lysis syndrome; also recorded: sedative which has the side effect of lethargy

C[C@]12CC[C@H]3[C@@H](CCC4=CC(=O)CC[C@@]43S)[C@@H]1CC[C@@H]2O [compound 1, 17β-hydroxy-10β-mercaptoestr-4-en-3-one]
rate constant ratio, 17β-hydroxy-10β-mercaptoestr-4-en-3-one vs 19-mercaptoandrost-4-en-3,17-dione (aromatase [5]): about three | remaining activity at 0.25 µM (aromatase [1]; [6]): 52 ± 3% | remaining activity at 0.25 µM (aromatase [1]; [7]): 49 ± 6% | remaining activity at 0.5 µM (aromatase [2]; [8]): 95 ± 2% | remaining activity at 0.5 µM (aromatase [2]; [9]): 67 ± 2% | remaining activity at 0.5 µM (aromatase [2]; [10]): 96 ± 3% | t1/2 (mean ± SD), time to bring about a 50% inhibition of aromatase (aromatase [3]): 4.68 ± 0.833 min | t1/2 (mean ± SD), inhibitor and androstenedione (aromatase [3]): 12.6 ± 0.833 min | t1/2 (mean ± SD), inhibitor and cysteine (aromatase [3]): 5.17 ± 0.967 min

From patent US4745109A, “Suicide inhibitors of aromatase” (Washington Research Foundation, priority 1984, dated 1988)
